Assay results reported in the supplement of paper PMC5412046.
Where a name gives a salt, the structure may show the parent alone.

Assays:
SB.msgc-1 [1] = assay: area under the dose-response curve of % viability (trapezoidal, 11 doses) (% viability x log10 concentration); higher = less cytotoxic; settings: SB.msgc-1 (sporadic gastric cancer)
Procedure, shortened: (§1)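 Hereditary or sporadic patient-derived gastric cancer cells (500 cells in 5 μL medium per 1536 well) received 23 nL compound in DMSO by pintool at 11 threefold-diluted concentrations, with the top concentration recorded per compound. After 48 h, CellTiter-Glo was added for 30 min at room temperature and luminescence read on a ViewLux. Values are DMSO-normalised viability, either at the highest concentration or as trapezoidal area under the curve.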

SB.mhdgc-1 [2] = assay: as above; settings: SB.mhdgc-1 (hereditary c.1380delA CDH1 gastric cancer)
Procedure, shortened: as §1

SB.msgc-1 [3] = assay: viability at highest tested concentration (MAXR) relative to DMSO; higher = less cytotoxic; settings: SB.msgc-1 (sporadic gastric cancer)
Procedure, shortened: as §1

SB.mhdgc-1 [4] = assay: as above; settings: SB.mhdgc-1 (hereditary c.1380delA CDH1 gastric cancer)
Procedure, shortened: as §1

Row | Compound | area under the dose-response curve (SB.msgc-1 [1]) | area under the dose-response curve (SB.mhdgc-1 [2]) | viability (SB.msgc-1 [3]) [%] | viability (SB.mhdgc-1 [4]) [%]
1 | CC(C(=O)O)c1ccc2c(c1)CC(=O)c1ccccc1S2 (stereo not drawn) [Zaltoprofen] (top concentration 46.0829 µM) | 431 | 452 | 49.6 | 31.5
2 | CCNC(=O)C[C@H]1/N=C(/C2=CC=C(Cl)C=C2)C3=CC(=CC=C3[N]4C(=NN=C14)C)OC (top concentration 46.0829 µM) | 439 | 476 | 25.9 | 36
3 | N[C@@H](Cc1ccc(N(CCCl)CCCl)cc1)C(=O)O [Melphalan] (top concentration 46.0829 µM) | 460 | 350 | 63.9 | 21.8
4 | Oc1cccc(-c2nc(N3CCOCC3)c3oc4ncccc4c3n2)c1 [PI-103] (top concentration 92.1659 µM) | 457 | 308 | 37.9 | 6.8
5 | CCCCCCCCOc1ccccc1C(=O)Nc1ccc(C(=O)OCC[N+](C)(CC)CC)cc1 [Octylonium bromide] (top concentration 46.0829 µM) | 484 | 422 | 48.2 | 46.1
6 | CCNC(=O)C[C@@H]1\N=C(C2=CC=C(Cl)C=C2)/C3=C(C=CC(=C3)OC)[N]4C(=NN=C14)C [I-BET762] (top concentration 46.0829 µM) | 372 | 478 | 14 | 84.1
7 | COC1=CC2=C(C=C1CC3=C(F)C(=CC=C3)Cl)C(=O)\C(=C/N2[C@H](CO)C(C)C)C(O)=O [Elvitegravir] (top concentration 46.0829 µM) | 512 | 559 | 48.4 | 69.1
8 | COc1cc2ncnc(Nc3ccc(F)c(Cl)c3)c2cc1OCCCN1CCOCC1 [Gefitinib] (top concentration 92.1659 µM) | 314 | 278 | 16 | 3.99
9 | Cn1c(CCCC(=O)O)nc2cc(N(CCCl)CCCl)ccc21 [Bendamustine] (top concentration 46.0829 µM) | 541 | 542 | 84.1 | 60.2
10 | NCCS(=O)(=O)O [Taurine] (top concentration 46.0829 µM) | 578 | 549 | 101 | 79
11 | N#C/C(=C1/Nc2ccccc2S1)c1ccnc(OCc2ccc(CN3CCOCC3)cc2)n1 (top concentration 46.0829 µM) | 312 | 267 | 12.5 | 5.64
12 | O=C(C=CC#Cc1cccc(N[S+](=O)([O-])c2ccccc2)c1)NO [Oxamflatin] (top concentration 46.0829 µM) | 379 | 403 | 9.38 | 19.8
13 | CC(C)[C@H](CO)Nc1nc(Nc2ccc(C(=O)O)c(Cl)c2)c2ncn(C(C)C)c2n1 [Purvalanol B] (top concentration 46.0829 µM) | 500 | 363 | 43.8 | 41.6
14 | Nc1ncnc2c1ncn2[C@@H]1O[C@@H](CO)[C@H](O)[C@@H]1O [Vidarabine] (top concentration 34.4879 µM) | 586 | 552 | 109 | 89.7
15 | C[C@H]1[C@H](O)O[C@@H]2O[C@@]3(C)CC[C@H]4[C@H](C)CC[C@@H]1[C@@]24OO3 [Artenimol] (top concentration 46.0829 µM) | 316 | 436 | 31.2 | 25.5
16 | Cc1cc(Nc2cc(N3CCN(C)CC3)nc(/C=C/c3ccccc3)n2)n[nH]1 (top concentration 92.1659 µM) | 519 | 440 | 32.1 | 2.71
17 | NC(=O)c1ccc(-c2nc(-c3ccc4c(c3)OCCO4)c(-c3ccccn3)[nH]2)cc1 [D-4476] (top concentration 46.0829 µM) | 512 | 584 | 42.5 | 85.8
18 | CC(=O)Nc1ccc(OC[C@](C)(O)C(=O)Nc2ccc([N+](=O)[O-])c(C(F)(F)F)c2)cc1 [Andarine] (top concentration 46.0829 µM) | 302 | 425 | 57.7 | 88.6
19 | C/C(O)=C(\C#N)C(=O)Nc1ccc(C(F)(F)F)cc1 [Teriflunomide] (top concentration 46.0829 µM) | 464 | 515 | 20.3 | 13.5
20 | Cc1cccc(N(C)C(=S)Oc2ccc3ccccc3c2)c1 [Tolnaftate] (top concentration 46.0829 µM) | 542 | 490 | 84.4 | 85.8
21 | Cc1cn(-c2cc(NC(=O)c3ccc(C)c(Nc4nccc(-c5cccnc5)n4)c3)cc(C(F)(F)F)c2)cn1 [Nilotinib] (top concentration 46.0829 µM) | 463 | 415 | 33.5 | 2.14
22 | Cc1cc(/C=c2/sc3nc4ccccc4n3c2=O)c(C)n1-c1ccccc1 [ITX3] (top concentration 46.0829 µM) | 504 | 590 | 56.6 | 55.4
23 | Cc1ccc([S+](=O)([O-])N[C@@H](Cc2ccccc2)C(=O)CCl)cc1 [TPCK] (top concentration 46.0829 µM) | 498 | 497 | 19 | 6.16
24 | O=C1c2ccccc2-c2n[nH]c3cccc1c23 (top concentration 46.0829 µM) | 536 | 448 | 93 | 68.6

Row | Compound | area under the dose-response curve (SB.msgc-1 [1]) | area under the dose-response curve (SB.mhdgc-1 [2]) | viability (SB.msgc-1 [3]) [%] | viability (SB.mhdgc-1 [4]) [%]
25 | Cc1cc(OCCCc2c(C(=O)O)n(Cc3cccnc3)c3c(-c4c(COc5ccc(N6CCN([S+](C)(=O)[O-])CC6)cc5)nn(C)c4C)cccc23)cc(C)c1Cl (top concentration 46.0829 µM) | 505 | 455 | 37.9 | 37.7
26 | CC[C@H](CC[C@@H](C)[C@H]1CC[C@H]2[C@@H]3C\C=C/4C[C@@H](O)CC[C@]4(C)[C@H]3CC[C@]12C)C(C)C [beta-Sitosterol] (top concentration 46.0829 µM) | 505 | 547 | 102 | 95.9
27 | COc1cc(Oc2ccnc3cc(OC)c(OC)cc23)ccc1NC(=O)NC(C)c1nccs1 (stereo not drawn) (top concentration 46.0829 µM) | 504 | 480 | 64.4 | 8.29
28 | CC(C)=CCC/C(C)=C/CC/C(C)=C/CC/C(C)=C/CC/C(C)=C/CC/C(C)=C/CC/C(C)=C/CC/C(C)=C/CC/C(C)=C/CO [Solanesol] (top concentration 46.0829 µM) | 564 | 611 | 119 | 133
29 | CCN(CC)CCCCNc1nc2cc(Cl)c(Cl)cc2nc1-c1ccc(-c2cccs2)s1 (top concentration 46.0829 µM) | 475 | 479 | 1.55 | 4.07
30 | CC(N[C@H]1C[C@@H]1c1ccccc1)c1ccc2c(c1)OCCO2 (stereo partly drawn) [LSD1-C76] (top concentration 46.0829 µM) | 513 | 606 | 99.3 | 126
31 | c1cc(CN2CCCNCCNCCCNCC2)ccc1CN1CCCNCCNCCCNCC1 [Plerixafor hydrochloride] (top concentration 46.0829 µM) | 450 | 579 | 81.5 | 109
32 | COc1ccc([S+](=O)([O-])Nc2cccnc2Nc2ccc(O)cc2)cc1 [E-7010] (top concentration 46.0829 µM) | 378 | 474 | 40.2 | 47
33 | Cn1c(Nc2ccc(C(F)(F)F)cc2)nc2cc(Oc3ccnc(-c4nc(C(F)(F)F)c[nH]4)c3)ccc21 [CHIR-265] (top concentration 46.0829 µM) | 454 | 464 | 48.9 | 57.8
34 | O=C1CCCC(=O)C1C(=O)c1ccc(C(F)(F)F)cc1[N+](=O)[O-] [Nitisinone] (top concentration 46.0829 µM) | 592 | 556 | 89.1 | 111
35 | COCCCOc1ccnc(C[S+]([O-])c2nc3ccccc3[n-]2)c1C (stereo not drawn) [Rabeprazole] (top concentration 46.0829 µM) | 497 | 545 | 72.4 | 68.7
36 | NC(=O)N/N=C/c1ccc([N+](=O)[O-])o1 [Nitrofurazone] (top concentration 46.0829 µM) | 512 | 499 | 67.4 | 82.6
37 | CC(C)(C)c1cc(C(=O)O)c(NC(=O)Nc2ccc3[nH]ncc3c2)s1 [S6K-18] (top concentration 46.0829 µM) | 524 | 426 | 77.1 | 99.1
38 | Fc1ccc(C(c2ccc(F)cc2)N2CCN(C/C=C/c3ccccc3)CC2)cc1 [Flunarizine] (top concentration 46.0829 µM) | 529 | 574 | 74.7 | 88
39 | CC(Oc1ccc(O)cc1)(P(=O)(O)O)P(=O)(O)O (top concentration 46.0829 µM) | 522 | 470 | 93.4 | 95.7
40 | CC(C)[C@@H](N(CCCN)C(=O)C1=CC=C(C)C=C1)C/2=N/C3=CC(=CC=C3C(=O)N2CC4=CC=CC=C4)Cl [Ispinesib] (top concentration 46.0829 µM) | 204 | 297 | 14.9 | 3.03
41 | NC/1=N/C(=O)C2=C([NH]C=C2CCC3=CC=C(C=C3)C(=O)N[C@@H](CCC(O)=O)C(O)=O)N1 [Pemetrexed disodium] (top concentration 46.0829 µM) | 412 | 429 | 47.4 | 62.5
42 | CNC(=O)c1cc(Oc2ccc(NC(=O)Nc3cc(C(C)(C)C)nn3-c3ccc4ncccc4c3)c(F)c2)ccn1 [DCC-2036] (top concentration 46.0829 µM) | 451 | 421 | 42.9 | 74.5
43 | CCN1\C=C(C(O)=O)/C(=O)C2=C1C(=C(N3CCNC(C)C3)C(=C2)F)F (stereo not drawn) [Lomefloxacin hydrochloride] (top concentration 46.0829 µM) | 515 | 517 | 101 | 124
44 | CCN(CC)C(=S)SSC(=S)N(CC)CC [Disulfiram] (top concentration 46.0829 µM) | 360 | 141 | 32.4 | 3.68
45 | CC(C)Cn1cnc2c(N)nc3ccccc3c21 [Imiquimod] (top concentration 46.0829 µM) | 511 | 439 | 44.5 | 42.7
46 | CC(=O)CC(C1=CC=CC=C1)C/2=C(O)/C3=CC=CC=C3OC2=O (stereo not drawn) [Warfarin sodium] (top concentration 46.0829 µM) | 548 | 501 | 104 | 114
47 | Clc1ccc2ncc(-c3cccc(NC4CNC4)n3)n2c1 (top concentration 46.0829 µM) | 529 | 450 | 21.2 | 40.8
